Values joined by “and” are separate entries in the source; they are usually repeats but may differ in a detail not shown here. Equal entries are not always repeated. Records with an inconclusive call do not appear. Active and inactive are the calls of the source.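 The calls were made as follows: active = Compounds that reduce signal, with fitted half-maximal dose at or under twice the top valid tested dose; inconclusive = Poor fit, or flat curve losing 30 to 70% of signal; inactive = Potency past limit, flat within 30%, or opposite direction.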
System: not listed separately
Experiment: HEK293T cell cytotoxicity, dose response, cytotoxicity control, ATP luminescence, cherry-pick samples (AID 687005)
Conditions: HEK293T viability, ATP luminescence (CellTiter-Glo), 48 h; at 23.5 µM (top of the series)

Row | SMILES | activity change, negative = cytotoxicity
1 | COc1ccc(CN(C)C[C@@H]2Oc3ccc(NS(C)(=O)=O)cc3CC(=O)N([C@H](C)CO)C[C@H]2C)cc1 | 1.11% (inactive)
2 | CN1c2ccc(Br)cc2[C@@H]2[C@@H](CCN2C(=O)Cc2cccnc2)[C@@H]1CO | -13.9% (inactive)
3 | C[C@H]1CN([C@@H](C)CO)C(=O)Cc2cc(NC(=O)C3CC3)ccc2O[C@@H]1CN(C)C(=O)Nc1cccc2ccccc12 | -3.99% (inactive)
4 | COc1ccc(NC(=O)N(C)C[C@@H]2OCCCC[C@@H](C)Oc3ccc(NC(=O)Nc4ccc5c(c4)OCO5)cc3C(=O)N([C@@H](C)CO)C[C@H]2C)cc1 | -17% (inactive)
5 | O=C(NC[C@@H]1[C@@H](c2ccccc2)[C@H](CO)N1C(=O)C1CCC1)NC1CCCC1 | -9.04% (inactive)
6 | Cc1cc(C(=O)Nc2cccc3c2O[C@@H](CN(C)S(=O)(=O)c2ccccc2)[C@@H](C)CN([C@@H](C)CO)C3=O)n(C)n1 | -20.3% (inactive)

Same assay, conditions: HEK293T viability, ATP luminescence (CellTiter-Glo), 48 h; at 26 µM (top of the series)

Row | SMILES | activity change, negative = cytotoxicity
7 | COc1cc(CO)cc(I)c1O[C@H]1C=C(C(=O)NCCO)C[C@@H](N(CC2CCCCC2)C(=O)c2cc3ccccc3oc2=O)[C@@H]1O | 29.4% (inactive)
8 | O=C(C1CCOCC1)N1CC[C@@H]2[C@H]1c1cc(Br)ccc1N[C@@H]2CO | 8.11% (inactive)
9 | CN(C)CCCn1c(=O)n(C2CCCCC2)c(=O)c2c3c(sc21)CCCCC3 | 50.5% (inactive)
10 | CC=Cc1ccc2n(c1=O)C[C@@H]1[C@@H](CO)[C@H](C(=O)N3CCCCC3)N(Cc3ccccc3)[C@H]21 (mixture of isomers) | 11.7% (inactive)
11 | C[C@@H]1CCCCO[C@@H](CN(C)C(=O)NC2CCCCC2)[C@H](C)CN([C@@H](C)CO)C(=O)c2cc(NS(=O)(=O)c3cn(C)cn3)ccc2O1 | 36.8% (inactive)
12 | C[C@@H]1CN([C@@H](C)CO)C(=O)c2cc(NC(=O)C3CC3)ccc2O[C@H]1CN(C)CC1CCCCC1 | -17.8% (inactive)
13 | Cc1ccc(S(=O)(=O)Nc2ccc3c(c2)C(=O)N([C@H](C)CO)C[C@H](C)[C@@H](CN(C)Cc2ccccc2)O3)cc1 | 43.1% (inactive)
14 | Cc1noc(C)c1S(=O)(=O)N(C)C[C@@H]1OCCCC[C@@H](C)Oc2ccc(NC(=O)CCCCCC(=O)Nc3ccccc3N)cc2C(=O)N([C@H](C)CO)C[C@@H]1C | 1.87% (inactive)
15 | C[C@H]1CN([C@@H](C)CO)C(=O)c2cc(NC(=O)Nc3cccc4ccccc34)ccc2O[C@@H]1CN(C)C(=O)Nc1ccc(C(F)(F)F)cc1 | 1.29% (inactive)
16 | COc1ccc(-c2cnc3c(c2)C(=O)N([C@@H](C)CO)C[C@H](C)[C@@H](CN(C)S(C)(=O)=O)O3)cc1 | -11.2% (inactive)
17 | COCC(=O)Nc1ccc2c(c1)C(=O)N(C)C[C@@H](OC)[C@H](C)CN(Cc1ccccc1)[C@@H](C)CO2 | 7.91% (inactive)
18 | O=C(NCc1ccc(F)cc1)C1C2C=CC3(CN(Cc4cccnc4)C(=O)C13)O2 (configuration not stated) | 9.79% (inactive)
19 | O=C(NC(=S)Nc1ccccc1N1CCOCC1)c1ccc(Br)cc1 | -8.37% (inactive)
20 | C[C@@H]1CCCCO[C@H](CN(C)Cc2ccncc2)[C@@H](C)CN([C@@H](C)CO)C(=O)c2cc(NC(=O)Nc3ccccc3)ccc2O1 | -7.38% (inactive)
21 | COCC#Cc1cnc2c(c1)C(=O)N([C@@H](C)CO)C[C@@H](C)[C@@H](CN(C)C(=O)C1CC1)O2 | -14.4% (inactive)
22 | COc1ccc(S(=O)(=O)Nc2ccc3c(c2)C(=O)N([C@H](C)CO)C[C@H](C)[C@H](CN(C)C(=O)Nc2ccccc2)O3)cc1 | -2.82% (inactive)
23 | C/C=C/c1cnc2c(c1)C(=O)N([C@@H](C)CO)C[C@@H](C)[C@@H](CN(C)C(=O)C1CCCCC1)O2 | 10.3% (inactive)
24 | CCOC(=O)NC(=S)Nc1ccc(C(C)(C)C)cc1Br | 9.89% (inactive)
25 | O=C(CN1CCOCC1)N1CC[C@@H]2[C@@H](CO)Nc3ccc(-c4ccccc4F)cc3[C@@H]21 | 29% (inactive)
26 | O=C(C[C@H]1C=C[C@H](NC(=O)Nc2cc(F)ccc2F)[C@@H](CO)O1)NCCCN1CCOCC1 | 27.4% (inactive)
27 | CC(C)NC(=O)N(C)C[C@@H]1Oc2c(NC(=O)C3CCCCC3)cccc2C(=O)N([C@@H](C)CO)C[C@@H]1C | 24.4% (inactive)

Row | SMILES | activity change, negative = cytotoxicity
28 | O=C(C[C@@H]1CC[C@H](NC(=O)Cc2ccccn2)[C@@H](CO)O1)NCCc1ccccc1 | -8.35% (inactive)
29 | CCCNC(=O)C[C@H]1C[C@H]2c3cc(NC(=O)Nc4ccc(OC)cc4)ccc3O[C@H]2[C@@H](CO)O1 | -21% (inactive)
30 | COc1ccc(C2CC(c3cccs3)=NN2C(=O)c2ccc(Br)o2)cc1 (configuration not stated) | 16.8% (inactive)
31 | C[C@H](CO)N1C[C@H](C)[C@H](CN(C)C(=O)Nc2ccc3c(c2)OCO3)Oc2ncc(-c3ccc(F)cc3)cc2C1=O | -18.8% (inactive)
32 | O=C(C[C@@H]1C[C@@H]2c3cc(NC(=O)C4CCC4)ccc3O[C@@H]2[C@H](CO)O1)NCc1cccc(F)c1 | 3.17% (inactive)
33 | C[C@H](CO)N1C[C@H](C)[C@@H](CN(C)C(=O)C2CCOCC2)Oc2ncc(C#CCc3ccccc3)cc2C1=O | 6.08% (inactive)
34 | CCc1ccc(C(C)NC(=S)NCc2ccc(F)cc2)cc1 (configuration not stated) | 17.2% (inactive)
35 | CO[C@H]1CN(C)C(=O)c2cc(NS(=O)(=O)CC(F)(F)F)ccc2OC[C@@H](C)N(Cc2cccnc2)C[C@@H]1C | -36.3% (inactive)
36 | Cc1cc(C)c(NC(=O)C2CCCN2CCO)c(C)c1 (configuration not stated) | -10.1% (inactive)
37 | O=C1CCC(C(=O)Nc2ccc([N+](=O)[O-])cc2)N1 (configuration not stated) | -9.02% (inactive)
38 | C[C@@H]1CN([C@@H](C)CO)C(=O)c2cc(NC(=O)Nc3cccc4ccccc34)ccc2O[C@@H]1CN(C)C(=O)Nc1ccccc1 | 42.1% (inactive)
39 | C[C@H](CO)N1C[C@H](C)[C@@H](CN(C)Cc2ccncc2)Oc2ccc(NC(=O)CCC(F)(F)F)cc2C1=O | -2.07% (inactive)
40 | C[C@@H]1CCCCO[C@H](CN(C)Cc2ccncc2)[C@@H](C)CN([C@H](C)CO)C(=O)c2cc(N(C)C)ccc2O1 | -3.32% (inactive)
41 | O=C([C@H]1[C@H](CO)[C@H]2Cn3c(cccc3=O)[C@@H]1N2Cc1cccc(Cl)c1)N1CCOCC1 | -20.6% (inactive)
42 | CC(C)NC(=O)Nc1ccc2c(c1)C(=O)N([C@@H](C)CO)C[C@H](C)[C@@H](CN(C)C(=O)CCC(F)(F)F)OCCCC[C@H](C)O2 | 42.8% (inactive)
43 | CO[C@@H]1CN(C)C(=O)c2ccc(NC(=O)Nc3ccccc3)cc2OC[C@H](C)N(C(C)=O)C[C@H]1C | -7.15% (inactive)
44 | CCCN1C[C@@H](C)[C@H](OC)CN(C)C(=O)c2ccc(NC(=O)c3cccc(F)c3)cc2OC[C@@H]1C | -7.98% (inactive)
45 | O=C(Nc1ccccc1)N[C@@H]1CC[C@@H](CCNC(=O)c2ccccc2F)O[C@H]1CO | -29.3% (inactive)
46 | COc1ccc(CN(C)C[C@@H]2Oc3c(NC(=O)Nc4cccc5ccccc45)cccc3C(=O)N([C@@H](C)CO)C[C@@H]2C)cc1 | -9.75% (inactive)
47 | CCCNC(=O)C[C@@H]1CC[C@H]2[C@@H](COC[C@H](O)CN2Cc2ccccc2F)O1 | 22.6% (inactive)
48 | CO[C@H]1CC[C@@H]2CCOc3c(C#N)cccc3C(=O)N(C)C[C@@H](OC)[C@@H](C)C(=O)N(C)C[C@@H]1O2 | -16.3% (inactive)

Same assay, conditions: HEK293T viability, ATP luminescence (CellTiter-Glo), 48 h; at 30 µM (top of the series)

Row | SMILES | activity change, negative = cytotoxicity
49 | NC(=O)CN(c1ccccc1)S(=O)(=O)c1ccc(F)cc1 | -2.68% (inactive)

Same assay, conditions: HEK293T viability, ATP luminescence (CellTiter-Glo), 48 h; at 42 µM (top of the series)

Row | SMILES | activity change, negative = cytotoxicity
50 | Cc1ccc(NC(=O)C2(C)CCN2C(=O)CC2CC2)cc1C (configuration not stated) | 22.8% (inactive)

System: HEK293T viability, ATP luminescence (CellTiter-Glo), 48 h
Experiment: as above
Conditions: not given

Row | SMILES | AC50
51 | COC(=O)C1=C(C)N(Cc2ccccc2)C(=S)NC1c1cccc(OC)c1 (configuration not stated) | 13.1 µM and 4.84 µM
52 | COc1ccc(C(=O)NC(=S)Nc2cccc(Cl)c2N2CCOCC2)cc1[N+](=O)[O-] | 25.1 µM and 6.55 µM
